This note sets out measurements from patent publication US12599601B2, “Antifungal composition containing carbazole compound as active ingredient” (KOREA UNIVERSITY RESEARCH AND BUSINESS FOUNDATION, priority 2019, dated 2026).

In brackets after ≈: the same amount, converted by molar mass. Several values for one entry are separate records, joined by “and”; a condition that tells them apart may be missing. Identical values can stand only once. Like-named read-outs stand apart in the source and are kept apart here. Bounds are passed on as bounds.

One data set relates to Candida albicans. Briefly: Inhibition of Candida growth, CLSI M27-A2 broth microdilution (absorbance, MIC). In kind it is cell-based. Particulars: for MIC: Candida, Table 2; for absorbance of the Candida strain: 37° C., 24 hours, replicate wells. The procedure:
An inhibitory effect on Candida growth was evaluated using the CLSI M27 method, which is known as a standard method for antifungal susceptibility testing. The evaluation was performed using the broth microdilution method according to the guidelines of CLSI M27-A2. As medium, 10.4 g of RPMI-MOPS, which is RPMI-1640 medium (Gibco, Gaithersburg, MD, USA) supplemented with L-glutamine, was dissolved in 900 mL of distilled water, and then 34.53 g of 0.165 M 3-N-morpholinopropanesulfonic acid MOPS) buffer was dissolved therein to reach a final volume of 1,000 mL, followed by pH adjustment to 7.0. Then, the solution was filtered through a 0.2 μm filter, thus preparing a medium.
The carbazole compound was dissolved in triple distilled water or dimethyl sulfoxide (DMSO) (Sigma) to a concentration of 20 mg/mL.
A Candida strain was incubated in yeast extract peptone dextrose (YPED) for 16 hours at 30° C., and adjusted to 1.0 turbidity (measured by a spectrophotometer at 600 nm) so that the fungal concentration was about 2.0×10^7 CFU/mL. The fungal solution was washed with triple distilled water, and then diluted again with RPMI-MOPS medium, and 100 μL of the fungal solution was dispensed into each of well Nos. 1 to 10 of a 96-well microplate (final cell concentration: 2.0×10^4 CFU/mL). In addition, 100 μL of the fungal solution was dispensed into well No. 11 (a growth control well), and only 100 μL of RPMI-MOPS medium was dispensed into well No. 12 (a medium control well). After completion of fungal inoculation, the microplate was incubated at 37° C. for 24 hours.
For evaluation of the results, data were obtained by measuring the absorbance using a microplate spectrophotometer to prevent errors by the inspector.
In the data, the concentration at which growth was inhibited based on the medium control well was determined as MIC (minimum inhibitory concentration), and the results are shown in Table 2 below and FIG. 1.
(In broth dilution the organism is exposed to a series of concentrations in liquid medium.)

Data set [1] relates to Candida SC5314. Description: Survival of candidiasis mouse models, compounds in drinking water. The note with it: Balb/C mice infected by tail vein; drinking water with molecule B 16 μg/ml or molecule C 32 μg/ml daily; monitored 2 weeks; control 0% within 9 days. In kind it is in vivo. The text has this:
(§1) For Candida infection, SC5314, a wild-type strain, was used, and 6-week-old Balb/C female mice were used. The mice were divided into two groups, each consisting of 5 mice, and the survival rate thereof was monitored.
The control group of the experiment using drinking water was provided with normal drinking water daily after Candida infection performed by tail vein injection as described in Example 3-1, and the experimental groups were provided daily with drinking water treated with molecule B at a concentration of 16 μg/ml or with drinking water treated with molecule C at a concentration of 32 μg/ml. The survival rates of the mice were monitored daily for 2 weeks.

A further data set deals with S. cerevisiae. Description: MIC test against budding yeast, same manner as Example 1-1. In kind it is cell-based.
Data set [2] relates to Candida SC5314. Briefly: Extent of kidney infection in Candida-infected mice. Particulars: Candida infection by tail vein injection; treated as in Example 3-1. In kind it is in vivo. The method, then:
as §1
5.0×10^5 Candida cells were diluted in 200 μl of PBS and mice were infected with the dilution by tail vein injection. From day 1 after infection, the control group was inoculated with 200 μl of PBS by tail vein injection, the experimental groups were weighed and treated with molecule B (diluted in 100 μl of PBS) in an amount of 8 mg/kg by tail vein injection or treated with molecule C (diluted in 100 μl of PBS) in an amount of 16 mg/kg by tail vein injection.
After Candida infection performed by tail vein injection as described in Example 3-1, the mice showing the following conditions based on humane euthanasia standards were euthanized using CO2, and the kidneys were collected therefrom and the extents of infection thereof were compared: inability to eat food or drink water; abnormal breathing; dull and stiff hair; reduced movement; or bent posture or body tremor.

In the next data set the test system is A. fumigatus. Briefly: MIC test against A. fumigatus, same manner as Example 1-1. In kind it is cell-based.
The next data set relates to HeLa cells. The note with it: 16 hours treatment, MTS, tested 1 to 64 μg/ml. The method, then:
The cytotoxicity of the carbazole compound to mammalian cells was evaluated using the human cervical cancer cell line HeLa.
Cells were seeded into a 96-well microplate at a density of 1.0×10^4 cells per well, and cultured in 10% FBS-containing DMEM for 24 hours at 37° C. Then, the medium was removed, each well was washed once with PBS and then treated with the synthesized compound diluted in DMEM serially from a concentration of 64 μg/ml to a concentration of 1 μg/ml. 16 hours after treatment with the compound, cytotoxicity was measured using MTS.

[3] abbreviates: Candida albicans, read-out: MIC.

The term MIC denotes the least concentration at which growth counts as inhibited. `Nc1ccc(CCCN2CCN(CCCCn3c4ccccc4c4cccc(Br)c43)CC2)cc1` [Molecule J]: the MIC against Candida albicans is 32 µg/mL (≈ 61.6 µM).
In the data set on Candida albicans, `Nc1ccc(CCCN2CCN(CCCCn3c4ccccc4c4cc([N+](=O)[O-])ccc43)CC2)cc1` [Molecule G] returned an MIC of 16 µg/mL (≈ 32.9 µM).
Regarding `Nc1ccc(CCCN2CCN(CCCCN(c3ccccc3)c3ccccc3)CC2)cc1` [Molecule F], the MIC with Candida albicans (setting [3]) turned out to be 32 µg/mL (≈ 72.3 µM).
Regarding `Nc1ccc(CCCN2CCN(CCCCn3c4ccccc4c4ccccc43)CC2)cc1` [Molecule C], the survival rate in the data set with Candida SC5314 [1] was 80%. In addition, the “MIC against budding yeast S. cerevisiae” value against S. cerevisiae was found to be 4 µg/mL (≈ 9.08 µM). Moreover, the “MIC against Candida” value in the data set on Candida albicans was determined as 16 µg/mL (≈ 36.3 µM). The “absorbance of the Candida strain” value with Candida albicans (0.125 μg/ml compound) was 0.168 and 0.156 and 0.17; in the data set with Candida albicans (0.25 μg/ml compound), 0.189 and 0.193 and 0.162; in the data set on Candida albicans (0.5 μg/ml compound), 0.182 and 0.25 and 0.199; with Candida albicans (1 μg/ml compound), 0.196 and 0.193 and 0.194; in the data set with Candida albicans (2 μg/ml compound), 0.19 and 0.198 and 0.188; in the data set with Candida albicans (4 μg/ml compound), 0.194 and 0.24 and 0.195. Further, the “absorbance of the Candida strain” value in the data set on Candida albicans (8 μg/ml compound) was 0.122 and 0.136 and 0.124; with Candida albicans (16 μg/ml compound), 0.044 and 0.04 and 0.038; in the data set with Candida albicans (32 μg/ml compound), 0.043 and 0.039 (2×); in the data set with Candida albicans (64 μg/ml compound) it was 0.044 and 0.04 and 0.039. Moreover, the MIC against Candida albicans worked out at 16 µg/mL (≈ 36.3 µM). The “extent of kidney infection compared to control mice” value in the data set on Candida SC5314 [2] was “very low extent of kidney infection”. In addition, in the data set with A. fumigatus, the “MIC against A. fumigatus” value was 64 µg/mL (≈ 145 µM). Moreover, the “concentration up to which no toxicity to mammalian cells was shown” value in the data set with HeLa cells was no more than 32000 ng/mL.
Turning to `Nc1ccc(CCCCN2CCN(CCCCn3c4ccccc4c4ccccc43)CC2)cc1` [Molecule H], in the data set with Candida albicans (setting [3]), the MIC was determined as 32 µg/mL (≈ 70.4 µM).
With `CN(C/C=C/c1ccccc1)CCCCn1c2ccccc2c2ccccc21` [Molecule D], in the data set on Candida albicans (setting [3]), the MIC came out at 16 µg/mL (≈ 43.4 µM).
Regarding `Nc1ccc(CCCC2CCN(CCCCn3c4ccccc4c4ccccc43)CC2)cc1` [Molecule I], the MIC with Candida albicans (setting [3]) amounted to 32 µg/mL (≈ 72.8 µM).
In the case of `C(=C\c1ccccc1)/CN1CCN(CCCCCn2c3ccccc3c3ccccc32)CC1` [Molecule A], the MIC in the data set with Candida albicans (setting [3]) was 32 µg/mL (≈ 73.1 µM).
`Nc1ccc(CCCN2CCN(CCCCn3c4ccccc4c4cc(Br)ccc43)CC2)cc1` [Molecule B] came in with a survival rate in the data set on Candida SC5314 [1] of 100%. The “MIC against budding yeast S. cerevisiae” value in the data set with S. cerevisiae was 4 µg/mL (≈ 7.7 µM). For the same molecule, the “MIC against Candida” value with Candida albicans was 8 µg/mL (≈ 15.4 µM). Besides, the “absorbance of the Candida strain” value with Candida albicans (0.125 μg/ml compound) is 0.209 and 0.229 and 0.206; in the data set on Candida albicans (0.25 μg/ml compound), 0.199 and 0.201 and 0.212; in the data set with Candida albicans (0.5 μg/ml compound), 0.198 and 0.199 and 0.218; in the data set with Candida albicans (1 μg/ml compound), 0.224 and 0.228 and 0.208; in the data set on Candida albicans (2 μg/ml compound), 0.143 (2×) and 0.152; in the data set with Candida albicans (4 μg/ml compound), 0.137 and 0.132 and 0.135. In addition, the “absorbance of the Candida strain” value with Candida albicans (8 μg/ml compound) is 0.041 (2×) and 0.034; with Candida albicans (16 μg/ml compound), 0.042 (2×) and 0.036; in the data set with Candida albicans (32 μg/ml compound) it was 0.047 and 0.045 and 0.04; in the data set with Candida albicans (64 μg/ml compound) it was 0.043 and 0.044 and 0.036. The MIC against Candida albicans came out at 8 µg/mL (≈ 15.4 µM). In the data set on Candida SC5314 [2], the “extent of kidney infection compared to control mice” value is “very low extent of kidney infection”. Also, the “MIC against A. fumigatus” value with A. fumigatus is 64 µg/mL (≈ 123 µM). Also, the “concentration up to which no toxicity to mammalian cells was shown” value in the data set on HeLa cells was no more than 16000 ng/mL.
Turning to `Nc1cccc(CCCN2CCN(CCCCn3c4ccccc4c4ccccc43)CC2)c1` [Molecule E], the MIC in the data set with Candida albicans (setting [3]) was 32 µg/mL (≈ 72.6 µM).
